Experimental findings from US6040300A, “Method of preventing colon cancer with vitamin D3 analogues” (Arch Development Corporation, priority 1995, dated 2000) are described below.

The nature of the data set: Serum 25(OH)D3 levels (radioimmunoassay). Type of data set: in vivo, Male albino Fisher-344 rats. The following applies: for Serum Levels 25(OH)D3: mean ± S.E.M., n=6. From the text: Male albino Fisher-344 rats, initially weighing ~90-100 g, were used in these studies. On arrival, the animals were quarantined for 1 wk and then randomly divided into the following six test groups: groups 1 and 2, standard vitamin D-sufficient diet; groups 3 and 4, standard diet supplemented with RO24-5531 (2.50 nmol/kg of feed); and groups 5 and 6, standard vitamin D-sufficient diet. […] Next, the rats in groups 2,4 and 6 were given subcutaneous injections of azoxymethane (AOM, Sigma Chemical Co., St. Louis, Mo.), 15 mg/kg body wt once a wk for 2 wks, while the rats in groups 1,3 and 5 received AOM-vehicle (saline).
Groups 1 and 2 were then maintained on the standard diet for an additional […]. Groups 3 and 4 were maintained on the RO24-5531 supplemented diets for the initial five wks and then switched to the standard diet without RO24-5531 for an additional 29 wks (initiation arm), whereas groups 5 and 6 were maintained on the standard diet without supplemental RO24-5531 for the initial five wks and then switched to the RO24-5531 supplemented diet for an additional 29 wks (post-initiation arm).
All rats were sacrificed in the non-fasting state after 34 wks on these protocols between 9 a.m. and 11 a.m. and sera obtained for measurement of calcium, phosphate, 25(OH)D3 and 1α,25(OH)2 D3 levels. The rats' colons were removed, opened, washed with normal saline and examined macroscopically for the presence of tumors. Resected tumors were weighed, and were fixed in 10% buffered formalin for microscopic examination. After formalin fixation, tissue specimens were paraffin-embedded, sectioned, and stained with hematoxylin and eosin as described previously (Sitrin et al., 1991), for light microscopic examination. All specimens were evaluated by a pathologist who was unaware of the dietary or AOM treatment history. Macroscopic and microscopic lesions were classified as either benign (adenoma) or malignant (adenocarcinoma).
Serum calcium and phosphorus were measured by standard colorimetric methods (Kessler and Wolfman, Clin. Chem. 10:686-703, 1964). Serum 25(OH)D3 levels were measured by radioimmunoassay, using a kit and procedure supplied by Incstar (Stillwater, Minn.). Serum 1α,25(OH)2 D3 levels were assayed by a non-equilibrium competitive protein-binding assay based on a calf thymus receptor, using a kit and procedure supplied by Incstar, as previously described (Sitrin et al., 1991).
Results are expressed as means ±SE of n determinations. Data were analyzed by Fisher's exact test (two-tailed) or analysis of variance (ANOVA) as appropriate (Snedecor and Cochran, Statistical Methods, 1980). Values of p <0.05 were considered statistically significant.

Regarding `C=C1/C(=C\C=C2/CCC[C@]3(C)C([C@H](C)CC#CC(O)(C(F)(F)F)C(F)(F)F)=CC[C@@H]23)C[C@@H](O)C[C@@H]1O` [RO24-5531, 26,26,26,27,27,27-hexafluoro-1α,25-dihydroxy-16-ene-23-yne-cholecalciferol], the “Serum Levels 25(OH)D3” value was found to be 31 ± 2 ng/mL (group 3: RO24-5531/SD, no AOM); 29 ± 2 ng/mL (group 4: RO24-5531/SD (initiation arm), AOM); 33 ± 4 ng/mL (group 5: SD/RO24-5531, no AOM); 36 ± 5 ng/mL (group 6: SD/RO24-5531 (post-initiation arm), AOM). Further, the “effect on serum levels of 25(OH)D3” value (groups 4 and 6) is reported as “significantly altered the serum levels of calcium, phosphorus or 25(OH)D3”.
